Numbering of substitutions follows the chain as printed.
Tests used:
[1] = target: T1, Vtc1/Vtc3/Vtc4 complex (VTC complex) (Saccharomyces cerevisiae, UniProt P47075+Q02725, Q02725:Y22F/Q02725:K26A/Q02725:K130A); experiment: polyP synthesis, TBE-PAGE; format: biochemical; conditions: activator; 15 mM ATP, 10 mM MgCl2, 1 mM MnCl2, 0.5 mM pyrophosphate, 27 °C, 4 h; SPX PBC mutant
T1 construct: full-length subunits co-expressed in Expi293F; Vtc1 C-terminal HA, Vtc3 N-terminal 3xFlag, Vtc4 C-terminal 2xStrep; detergent-purified; 3:1:1 pentamer; with Vacuolar transporter chaperone complex subunit 1
T1 sequence (P47075 1-721): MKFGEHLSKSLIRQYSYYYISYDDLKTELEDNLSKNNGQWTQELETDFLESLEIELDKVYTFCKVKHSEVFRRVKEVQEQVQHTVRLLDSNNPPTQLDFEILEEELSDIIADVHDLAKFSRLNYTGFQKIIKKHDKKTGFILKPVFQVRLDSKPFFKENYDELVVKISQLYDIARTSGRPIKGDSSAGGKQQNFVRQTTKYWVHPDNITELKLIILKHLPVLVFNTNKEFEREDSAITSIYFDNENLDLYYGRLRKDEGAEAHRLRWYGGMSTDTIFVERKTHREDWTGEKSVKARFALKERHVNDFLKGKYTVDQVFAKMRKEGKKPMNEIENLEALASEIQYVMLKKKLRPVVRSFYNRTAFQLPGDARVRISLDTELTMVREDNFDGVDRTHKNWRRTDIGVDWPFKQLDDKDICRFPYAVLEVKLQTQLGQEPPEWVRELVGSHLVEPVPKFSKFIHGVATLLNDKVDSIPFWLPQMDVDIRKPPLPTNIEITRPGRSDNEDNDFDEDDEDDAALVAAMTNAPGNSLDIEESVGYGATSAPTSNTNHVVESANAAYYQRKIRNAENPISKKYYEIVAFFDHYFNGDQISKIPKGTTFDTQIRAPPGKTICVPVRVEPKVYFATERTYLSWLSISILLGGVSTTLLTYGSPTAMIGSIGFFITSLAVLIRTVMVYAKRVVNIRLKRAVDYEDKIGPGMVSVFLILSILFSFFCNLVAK
T1 sequence (Q02725 1-835 Y22F/K26A/K130A): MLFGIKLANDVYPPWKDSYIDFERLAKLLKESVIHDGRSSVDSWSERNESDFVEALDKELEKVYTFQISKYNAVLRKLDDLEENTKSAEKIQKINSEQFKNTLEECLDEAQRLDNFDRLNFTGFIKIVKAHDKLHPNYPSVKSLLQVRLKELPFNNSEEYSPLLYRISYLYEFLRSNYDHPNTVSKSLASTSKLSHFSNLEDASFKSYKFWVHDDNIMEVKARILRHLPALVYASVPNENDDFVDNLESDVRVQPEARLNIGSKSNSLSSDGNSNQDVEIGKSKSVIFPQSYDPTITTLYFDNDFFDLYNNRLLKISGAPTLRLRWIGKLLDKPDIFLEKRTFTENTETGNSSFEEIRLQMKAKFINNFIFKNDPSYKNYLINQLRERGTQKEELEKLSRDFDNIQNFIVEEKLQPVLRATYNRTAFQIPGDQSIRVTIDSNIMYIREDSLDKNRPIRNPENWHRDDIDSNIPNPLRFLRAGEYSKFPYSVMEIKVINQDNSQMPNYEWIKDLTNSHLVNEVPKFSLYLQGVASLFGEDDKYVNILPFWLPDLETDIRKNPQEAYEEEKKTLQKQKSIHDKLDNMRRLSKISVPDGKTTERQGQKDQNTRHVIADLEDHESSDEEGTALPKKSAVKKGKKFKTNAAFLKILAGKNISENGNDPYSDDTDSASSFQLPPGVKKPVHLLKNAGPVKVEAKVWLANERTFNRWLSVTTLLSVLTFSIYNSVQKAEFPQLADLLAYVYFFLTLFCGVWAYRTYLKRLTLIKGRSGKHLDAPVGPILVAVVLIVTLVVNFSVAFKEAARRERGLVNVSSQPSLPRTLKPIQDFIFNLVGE
T1 sequence (P40046 2-129 partner): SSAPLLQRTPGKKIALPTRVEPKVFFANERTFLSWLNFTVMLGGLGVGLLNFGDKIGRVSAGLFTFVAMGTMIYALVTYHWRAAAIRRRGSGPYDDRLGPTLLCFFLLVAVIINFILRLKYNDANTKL

[2] = target: T2, Vtc1/Vtc3/Vtc4 complex (VTC complex) (Saccharomyces cerevisiae, UniProt P47075+Q02725, Q02725:K333A/Q02725:K362A/Q02725:K364A/Q02725:Y380F); experiment: polyP synthesis, TBE-PAGE; format: biochemical; conditions: activator; 15 mM ATP, 10 mM MgCl2, 1 mM MnCl2, 0.5 mM pyrophosphate, 27 °C; TTM cleft (second site) mutant
T2 construct: full-length subunits co-expressed in Expi293F; Vtc1 C-terminal HA, Vtc3 N-terminal 3xFlag, Vtc4 C-terminal 2xStrep; detergent-purified; 3:1:1 pentamer; with Vacuolar transporter chaperone complex subunit 1
T2 sequence (P47075 1-721): T1 sequence (P47075 1-721)
T2 sequence (Q02725 1-835 K333A/K362A/K364A/Y380F): T1 sequence (Q02725 1-835 Y22F/K26A/K130A) with F22Y, A26K, A130K, K333A, K362A, K364A, Y380F
T2 sequence (P40046 2-129 partner): T1 sequence (P40046 2-129 partner)

In the case of O=P(O)(O)O[C@H]1[C@H](OP(=O)(O)O)[C@@H](OP(=O)(O)O)[C@H](OP(=O)(O)O)[C@@H](OP(=O)(O)O)[C@H]1OP(=O)(O)O [InsP6], the “polyP synthesis, TBE-PAGE” value [1] is reported as “residues had little effect on polyP synthesis” and the “polyP synthesis, TBE-PAGE” value [2] is reported as “had little impact on InsP6-stimulated polyP synthesis by VTC complex”.
